Measurements taken from article PMC13170702 (Nuclear medicine and biology, 2025).

Tests used:
[1] = test system: 70 other CNS binding sites; details: at 1 μM; cited from earlier work
Sprague-Dawley rats = test: GLP 14-day toxicological study; format: in vivo; details: non-radioactive compound given on two consecutive days

NC(CC(=O)Nc1ccc2c(c1)Cc1cc(F)ccc1-2)C(=O)O (centres unmarked)
binding at 70 other CNS binding sites [1]: no binding

COC(=O)[C@@H](N)CC(=O)Nc1ccc2c(c1)Cc1cc(F)ccc1-2 [RP-115]
adverse effects (Sprague-Dawley rats): no overt adverse effects
